Measured values as given in the NIST ThermoML archive (doi:10.1016/j.fluid.2010.02.022).
Numbers after ± are expanded uncertainties.

Conditions: 101 kPa, Liquid, Pendant drop method

| Structure (SMILES) | interfacial tension (293 K) [mN/m] | interfacial tension (298 K) [mN/m] | interfacial tension (303 K) [mN/m] | interfacial tension (308 K) [mN/m] | interfacial tension (313 K) [mN/m] | interfacial tension (318 K) [mN/m] | interfacial tension (323 K) [mN/m] |
| --- | --- | --- | --- | --- | --- | --- | --- |
| CCCCCCCCn1cc[n+](C)c1.O=S(=O)([N-]S(=O)(=O)C(F)(F)F)C(F)(F)F + CCCCCC | 3.12 ± 0.11 | 3.07 ± 0.11 | 3.02 ± 0.11 | 2.95 ± 0.11 | 2.88 ± 0.11 | – | – |
| CCCCCC[n+]1ccn(C)c1.O=S(=O)([N-]S(=O)(=O)C(F)(F)F)C(F)(F)F + CCCCCC | 5.19 ± 0.14 | 5.1 ± 0.13 | 4.99 ± 0.13 | 4.88 ± 0.13 | 4.79 ± 0.13 | – | – |
| CCCC[n+]1ccn(C)c1.O=S(=O)([N-]S(=O)(=O)C(F)(F)F)C(F)(F)F + CCCCCC | 7.78 ± 0.17 | 7.64 ± 0.17 | 7.5 ± 0.17 | 7.37 ± 0.16 | 7.24 ± 0.16 | – | – |
| CCn1cc[n+](C)c1.O=S(=O)([N-]S(=O)(=O)C(F)(F)F)C(F)(F)F + CCCCCC | 11.36 ± 0.22 | 11.23 ± 0.22 | 11.12 ± 0.22 | 10.98 ± 0.22 | 10.82 ± 0.21 | – | – |
| CCCCCCCCn1cc[n+](C)c1.O=S(=O)([N-]S(=O)(=O)C(F)(F)F)C(F)(F)F + CCCCCCCC | 3.76 ± 0.1 | 3.69 ± 0.1 | 3.6 ± 0.1 | 3.49 ± 0.1 | 3.38 ± 0.1 | – | – |
| CCCCCC[n+]1ccn(C)c1.O=S(=O)([N-]S(=O)(=O)C(F)(F)F)C(F)(F)F + CCCCCCCC | 5.79 ± 0.11 | 5.66 ± 0.11 | 5.5 ± 0.11 | 5.36 ± 0.11 | 5.24 ± 0.11 | – | – |
| CCCC[n+]1ccn(C)c1.O=S(=O)([N-]S(=O)(=O)C(F)(F)F)C(F)(F)F + CCCCCCCC | 8.78 ± 0.11 | 8.6 ± 0.11 | 8.43 ± 0.11 | 8.25 ± 0.11 | 8.1 ± 0.11 | – | – |
| CCn1cc[n+](C)c1.O=S(=O)([N-]S(=O)(=O)C(F)(F)F)C(F)(F)F + CCCCCCCC | 12.23 ± 0.13 | 12.1 ± 0.13 | 11.84 ± 0.12 | 11.7 ± 0.12 | 11.43 ± 0.12 | – | – |
| CCCCCCCCn1cc[n+](C)c1.O=S(=O)([N-]S(=O)(=O)C(F)(F)F)C(F)(F)F + CCCCCCCCCC | 3.98 ± 0.1 | 3.88 ± 0.1 | 3.76 ± 0.1 | 3.63 ± 0.1 | 3.51 ± 0.1 | – | – |
| CCCCCC[n+]1ccn(C)c1.O=S(=O)([N-]S(=O)(=O)C(F)(F)F)C(F)(F)F + CCCCCCCCCC | 6.59 ± 0.11 | 6.47 ± 0.11 | 6.36 ± 0.11 | 6.24 ± 0.11 | 6.11 ± 0.11 | – | – |
| CCCC[n+]1ccn(C)c1.O=S(=O)([N-]S(=O)(=O)C(F)(F)F)C(F)(F)F + CCCCCCCCCC | 9.43 ± 0.12 | 9.33 ± 0.12 | 9.21 ± 0.12 | 9.1 ± 0.12 | 8.99 ± 0.12 | – | – |
| CCn1cc[n+](C)c1.O=S(=O)([N-]S(=O)(=O)C(F)(F)F)C(F)(F)F + CCCCCCCCCC | 12.87 ± 0.14 | 12.75 ± 0.14 | 12.64 ± 0.14 | 12.52 ± 0.14 | 12.41 ± 0.14 | – | – |
| CCCCCCCCCCn1cc[n+](C)c1.O=S(=O)([N-]S(=O)(=O)C(F)(F)F)C(F)(F)F + O | 17.71 ± 0.14 | 17.41 ± 0.14 | 17.09 ± 0.14 | 16.75 ± 0.13 | 16.41 ± 0.13 | 16.05 ± 0.13 | 15.66 ± 0.13 |
| CCCCCCCCn1cc[n+](C)c1.O=S(=O)([N-]S(=O)(=O)C(F)(F)F)C(F)(F)F + O | 16.47 ± 0.14 | 15.79 ± 0.13 | 15.67 ± 0.13 | 15.37 ± 0.13 | 15.06 ± 0.13 | 14.61 ± 0.13 | 14.44 ± 0.13 |
| CCCCCC[n+]1ccn(C)c1.O=S(=O)([N-]S(=O)(=O)C(F)(F)F)C(F)(F)F + O | 15.39 ± 0.13 | 14.82 ± 0.13 | 14.49 ± 0.13 | 14.17 ± 0.13 | 14.01 ± 0.12 | 13.78 ± 0.12 | 13.45 ± 0.12 |
| CCCC[n+]1ccn(C)c1.O=S(=O)([N-]S(=O)(=O)C(F)(F)F)C(F)(F)F + O | 13.69 ± 0.12 | 13.2 ± 0.12 | 12.57 ± 0.12 | 12.31 ± 0.12 | 11.62 ± 0.12 | 11.4 ± 0.12 | 11.07 ± 0.12 |
| CCn1cc[n+](C)c1.O=S(=O)([N-]S(=O)(=O)C(F)(F)F)C(F)(F)F + O | 10.04 ± 0.11 | 9.85 ± 0.11 | 9.51 ± 0.11 | 9.29 ± 0.11 | 9.05 ± 0.11 | 8.79 ± 0.11 | 8.61 ± 0.11 |
| Cn1cc[n+](C)c1.O=S(=O)([N-]S(=O)(=O)C(F)(F)F)C(F)(F)F [1,3-dimethylimidazolium bis((trifluoromethyl)sulfonyl)amide] + O | – | 8.05 ± 0.11 | 7.83 ± 0.11 | 7.49 ± 0.11 | 7.14 ± 0.11 | 6.82 ± 0.11 | 6.52 ± 0.11 |
| CCCCn1cc[n+](C)c1.O=C([O-])C(F)(F)F [1-butyl-3-methylimidazolium trifluoroacetate] + CCCCCC | 8.74 ± 0.18 | 8.58 ± 0.18 | 8.43 ± 0.18 | 8.29 ± 0.18 | 8.16 ± 0.17 | – | – |
| CCCCn1cc[n+](C)c1.O=C([O-])C(F)(F)F [1-butyl-3-methylimidazolium trifluoroacetate] + CCCCCCCC | 9.38 ± 0.12 | 9.29 ± 0.12 | 9.21 ± 0.12 | 9.11 ± 0.12 | 8.98 ± 0.11 | – | – |
| CCCCn1cc[n+](C)c1.O=C([O-])C(F)(F)F [1-butyl-3-methylimidazolium trifluoroacetate] + CCCCCCCCCC | 10.52 ± 0.13 | 10.41 ± 0.13 | 10.29 ± 0.13 | 10.16 ± 0.13 | 10.04 ± 0.13 | – | – |
| CCCCn1cc[n+](C)c1.O=S(=O)([O-])C(F)(F)F [1-butyl-3-methylimidazolium trifluoromethanesulfonate] + CCCCCC | 9.07 ± 0.19 | 8.9 ± 0.19 | 8.74 ± 0.18 | 8.58 ± 0.18 | 8.43 ± 0.18 | – | – |
| CCCCn1cc[n+](C)c1.O=S(=O)([O-])C(F)(F)F [1-butyl-3-methylimidazolium trifluoromethanesulfonate] + CCCCCCCC | 9.96 ± 0.12 | 9.88 ± 0.12 | 9.79 ± 0.12 | 9.7 ± 0.12 | 9.59 ± 0.12 | – | – |
| CCCCn1cc[n+](C)c1.O=S(=O)([O-])C(F)(F)F [1-butyl-3-methylimidazolium trifluoromethanesulfonate] + CCCCCCCCCC | 10.79 ± 0.13 | 10.67 ± 0.13 | 10.56 ± 0.13 | 10.44 ± 0.13 | 10.31 ± 0.13 | – | – |
